Here are results for 4 molecules from PubChem BioAssay AID256 (DTP/NCI, 2004).

For the experiment, the system named is CD2F1 mice, L1210 leukemia ip, survival T/C. Kind of experiment: NCI In Vivo Anticancer Drug Screen. Data for tumor model L1210 Leukemia (intraperitoneal) in CD2F1 (CDF1) mice. To be noted: endpoint: mean survival time, higher = longer survival. In a few lines: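 Tumor-bearing mice (transplanted tumor) were split into treated and vehicle control groups, and the measured endpoint of each treated group was divided by that of its vehicle controls.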

Values joined by “and” are separate entries in the source; they are usually repeats but may differ in a detail not shown here. Equal values may be shown once. Toxic doses and inconclusive results are not listed.

Take `COC(=N)c1ccc(Cl)cc1`: the T/C reads like this: (dose: 100.0 mg/kg/injection, schedule: Q04DX003 (ip), vehicle: saline with Tween-80) 97 % of control; (dose: 200.0 mg/kg/injection, schedule: Q04DX003 (ip), vehicle: saline with Tween-80) 103 % of control; (dose: 400.0 mg/kg/injection, schedule: Q04DX003 (ip), vehicle: saline with Tween-80) 93 % of control.
For the molecule `CC1CC(C)(O)CC(C(O)CC2CC(=O)NC(=O)C2)C1=O` (stereo unspecified), the T/C was 96 % of control and 102 % of control (dose: 0.02 mg/kg/injection, schedule: Q01DX009 (ip), vehicle: saline); 105 % of control and 107 % of control (dose: 0.04 mg/kg/injection, schedule: Q01DX009 (ip), vehicle: saline); 114 % of control (dose: 0.08 mg/kg/injection, schedule: Q01DX009 (ip), vehicle: saline); 117 % of control and 122 % of control (dose: 0.16 mg/kg/injection, schedule: Q01DX009 (ip), vehicle: saline).
On to `Nc1ccc(OCC(O)CN2CCN(c3ccccc3)CC2)cc1` (stereo unspecified), for which the T/C was 94 % of control (dose: 100.0 mg/kg/injection, schedule: Q04DX002 (ip), vehicle: saline with Tween-80) and 107 % of control (dose: 200.0 mg/kg/injection, schedule: Q04DX002 (ip), vehicle: saline with Tween-80).
Take `c1ccc2[nH]c(CCCCCCCCc3nc4ccccc4[nH]3)nc2c1`: the T/C is, setting by setting: (dose: 100.0 mg/kg/injection, schedule: Q01DX009 (ip), vehicle: saline with Tween-80) 102 % of control; (dose: 200.0 mg/kg/injection, schedule: Q01DX009 (ip), vehicle: saline with Tween-80) 104 % of control.
